Literature values, collected in US20240342244A1, “Isthmin Protein Therapeutics for the Treatment of Non-Alcoholic Fatty Liver Disease” (The Board of Trustees of the Leland Stanford Junior …, priority 2021, published 2024).

Test system: NAFLD mice
Conditions: daily injections at 30 mg/kg; after 14 days; cited from earlier work

Structure (SMILES): CC(C)c1onc(-c2c(Cl)cccc2Cl)c1COc1ccc(/C=C/c2cccc(C(=O)O)c2)c(Cl)c1 [GW4064]
- hepatic steatosis (previously shown): significantly reduce hepatic steatosis
